# Experimental data taken from BindingDB's records for doi:10.1016/j.bmcl.2003.10.062 (Technische Universitat Braunschweig, 2004).
# Key:
# [1] = target: Cyclin-dependent kinase 1/G2/mitotic-specific cyclin-B (Marthasterias glacialis, UniProt P15206+Q9DGD3); assay: Kinase Inhibition Assay; details: pH 7.2; 30 °C
# [2] = target: T1, Cyclin-dependent kinase 5 activator 1 [99-307] (Homo sapiens, UniProt Q00535); assay: Kinase Inhibition Assay; details: pH 7.2; 30 °C
# T1 construct: 99-307
# T1 sequence (Q15078 99-307): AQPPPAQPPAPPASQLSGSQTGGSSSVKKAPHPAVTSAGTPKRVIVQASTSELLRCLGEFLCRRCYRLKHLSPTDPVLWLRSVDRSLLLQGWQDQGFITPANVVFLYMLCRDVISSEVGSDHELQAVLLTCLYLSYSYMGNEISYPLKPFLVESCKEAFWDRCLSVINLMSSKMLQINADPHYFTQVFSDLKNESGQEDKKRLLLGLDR
# T1 sequence (Q00535 whole entry): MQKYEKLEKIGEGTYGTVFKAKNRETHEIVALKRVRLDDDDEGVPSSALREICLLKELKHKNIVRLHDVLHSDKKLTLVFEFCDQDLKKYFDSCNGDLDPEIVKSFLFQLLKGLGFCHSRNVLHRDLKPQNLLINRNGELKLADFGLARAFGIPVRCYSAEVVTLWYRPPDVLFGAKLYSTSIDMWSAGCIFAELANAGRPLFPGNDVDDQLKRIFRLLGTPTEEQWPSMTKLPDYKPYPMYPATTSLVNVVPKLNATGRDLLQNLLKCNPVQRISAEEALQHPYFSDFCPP
# Cyclin-dependent kinase 1/G2/mitotic-specific cyclin-B, sequence (Q9DGD3 whole entry): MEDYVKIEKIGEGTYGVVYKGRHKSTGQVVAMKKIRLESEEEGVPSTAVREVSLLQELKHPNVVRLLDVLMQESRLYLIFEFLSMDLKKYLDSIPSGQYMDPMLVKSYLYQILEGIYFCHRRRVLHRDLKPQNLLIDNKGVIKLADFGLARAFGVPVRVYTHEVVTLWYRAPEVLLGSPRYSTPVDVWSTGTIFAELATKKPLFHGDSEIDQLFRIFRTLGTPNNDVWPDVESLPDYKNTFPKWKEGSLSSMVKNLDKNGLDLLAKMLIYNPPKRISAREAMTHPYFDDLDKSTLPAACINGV
# Cyclin-dependent kinase 1/G2/mitotic-specific cyclin-B, sequence (P15206 whole entry): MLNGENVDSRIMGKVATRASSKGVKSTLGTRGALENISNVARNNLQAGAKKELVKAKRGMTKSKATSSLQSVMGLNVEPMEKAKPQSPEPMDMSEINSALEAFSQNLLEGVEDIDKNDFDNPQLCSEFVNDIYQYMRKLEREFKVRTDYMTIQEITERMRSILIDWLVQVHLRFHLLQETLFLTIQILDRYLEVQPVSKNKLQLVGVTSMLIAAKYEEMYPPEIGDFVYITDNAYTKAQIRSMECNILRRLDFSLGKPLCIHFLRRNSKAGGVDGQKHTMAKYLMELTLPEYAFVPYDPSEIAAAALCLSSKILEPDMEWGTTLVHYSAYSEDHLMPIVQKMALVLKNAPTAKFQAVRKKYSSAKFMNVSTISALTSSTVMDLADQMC
compound,measurement,setting,value
"O=Nc1c(C2C(=O)Nc3ccc(I)cc32)[nH]c2ccccc12 (configuration not stated) [3-[(2Z,3E)-3-(hydroxyimino)-2,3-dihydro-1H-indol-2-ylidene]-5-iodo-2,3-dihydro-1H-indol-2-one]",IC50,[1],25 nM
same,IC50,[2],20 nM
